Converted amounts (≈) assume the structure as drawn. Read-outs that look alike come from different tables or passages of the source.
Key:
Type in all cases: cell-based
[1] = test system: Staphylococcus aureus 209P; assay: MIC, serial dilution on Mueller Hinton agar
[2] = test system: Staphylococcus aureus Ap01; assay: MIC, serial dilution on Mueller Hinton agar
Bacillus subtilis PCI219 = assay: MIC, serial dilution on Mueller Hinton agar
[3] = test system: Corynebacterium bovis 1810; assay: MIC, serial dilution on Mueller Hinton agar
Escherichia coli K-12 = assay: MIC, serial dilution on Mueller Hinton agar; settings: K12; Escherichia coli K-12; Mueller Hinton agar, 37°C, 18 hours; read-out: MIC.
Escherichia coli K-12 R5 = assay: MIC, serial dilution on Mueller Hinton agar; settings: K12R5, 18 h
[4] = test system: Escherichia coli K-12 ML 1629; assay: MIC, serial dilution on Mueller Hinton agar; settings: K12ML1629, Escherichia coli K-12 ML 1629, resistance mechanism APH(3')-I, 37°C, 18 hours
[5] = test system: Escherichia coli K-12 LA 290 R55; assay: MIC, serial dilution on Mueller Hinton agar; settings: Escherichia coli, K12LA290R55, 18 h
Escherichia coli JR225 = assay: microbe, parasite or virus in culture; settings: Escherichia coli, JR225, 18 h
[6] = test system: Escherichia coli JR66/W677; assay: microbe, parasite or virus in culture; settings: JR66/W677, 18 h
Mycobacterium 607 = assay: MIC, serial dilution on Mueller Hinton agar; settings: Mycobacterium 607; Mueller Hinton agar, 37°C, incubated for 40 hours; read-out: MIC.
[7] = test system: Klebsiella pneumoniae 22#3038; assay: MIC, serial dilution on Mueller Hinton agar; settings: Klebsiella pneumoniae 22#3038, resistance mechanism APH(3')-II, ANT(2"), 37°C, 18 hours
From the text: The antibacterial spectra so determined of the new compounds No. 1 to No. 13 (each in the form of the free base) of this invention are as shown in Table 1 below.

Proteus rettgeri GN 311 = assay: MIC, serial dilution on Mueller Hinton agar; settings: Providencia rettgeri, GN311; Proteus rettgeri GN 311; Mueller Hinton agar, 37°C, 18 hours; read-out: MIC.
Serratia marcescens = assay: MIC, serial dilution on Mueller Hinton agar
Providencia sp. Pv 16 = assay: MIC, serial dilution on Mueller Hinton agar
[8] = test system: Pseudomonas aeruginosa A3; assay: MIC, serial dilution on Mueller Hinton agar
[9] = test system: Pseudomonas aeruginosa GN 315; assay: MIC, serial dilution on Mueller Hinton agar; settings: GN315; Pseudomonas aeruginosa GN 315, resistance mechanism AAC(6'); Mueller Hinton agar, 37°C, 18 hours; read-out: MIC.
[10] = Staphylococcus aureus 209P, Mueller Hinton agar, 37°C, 18 hours, read-out: MIC.
[11] = Staphylococcus aureus Ap01, resistance mechanism ANT(4'), Mueller Hinton agar, 37°C, 18 hours, read-out: MIC.
[12] = Bacillus subtilis PCI219, Mueller Hinton agar, 37°C, 18 hours, read-out: MIC.
[13] = Corynebacterium bovis 1810, Mueller Hinton agar, 37°C, 18 hours, read-out: MIC.
[14] = SP.PV16, Providencia sp. Pv 16, resistance mechanism AAC(2'), Mueller Hinton agar, 37°C, 18 hours, read-out: MIC.
[15] = Pseudomonas aeruginosa A3, Mueller Hinton agar, 37°C, 18 hours, read-out: MIC.
[16] = Mueller Hinton agar, 37°C, 18 hours, read-out: MIC.

Structure (SMILES)	MIC [1, 10] [µg/mL]	MIC [2, 11] [µg/mL]	MIC (Bacillus subtilis PCI219; [12]) [µg/mL]	MIC [3, 13] [µg/mL]	MIC (Escherichia coli K-12) [µg/mL]	MIC (Escherichia coli K-12 R5) [µg/mL]	MIC [4] [µg/mL]	MIC [5] [µg/mL]	MIC (Escherichia coli JR225) [µg/mL]	MIC [6] [µg/mL]	MIC (Mycobacterium 607) [µg/mL]	MIC [7] [µg/mL]	MIC (Proteus rettgeri GN 311) [µg/mL]	MIC (Serratia marcescens; 18 h) [µg/mL]	MIC (Providencia sp. Pv 16; [14]) [µg/mL]	MIC [8, 15] [µg/mL]	MIC [9] [µg/mL]	MIC (Serratia marcescens; [16]) [µg/mL]	MIC (Providencia sp. Pv 16; Providencia, SP.PV16, 18 h) [µg/mL]	other results
NCC[C@H](O)C(=O)N[C@@H]1C[C@H](N)[C@@H](O[C@H]2O[C@H](CN)C[C@H](O)[C@H]2N)[C@H](F)[C@H]1O[C@H]1O[C@H](CO)[C@@H](O)[C@H](N)[C@H]1O [Compound No. 10, 1-N-(4-Amino-2-(S)-hydroxybutyryl)-5,4'-dideoxy-5-fluorokanamycin B]	0.39 (≈ 0.683 µM)	0.39 (≈ 0.683 µM)	0.39 (≈ 0.683 µM)	< 0.2	0.2 (≈ 0.35 µM)	12.5 (≈ 21.9 µM)	0.78 (≈ 1.37 µM)	1.56 (≈ 2.73 µM)	0.78 (≈ 1.37 µM)	1.56 (≈ 2.73 µM)	6.25 (≈ 11 µM)	3.12 (≈ 5.47 µM)	0.2 (≈ 0.35 µM)	3.12 (≈ 5.47 µM)	0.78 (≈ 1.37 µM)	0.39 (≈ 0.683 µM)	6.25 (≈ 11 µM)	–	–	–
NCC[C@H](O)C(=O)N[C@@H]1C[C@H](N)[C@@H](O[C@H]2O[C@H](CN)[C@@H](O)[C@H](O)[C@H]2O)[C@H](O)[C@H]1O[C@H]1O[C@H](CO)[C@@H](O)[C@H](N)[C@H]1O [AMK, 1-N-(4-amino-2-(S)-hydroxybutyryl)-kanamycin A, reference compound]	–	–	–	–	–	25 (≈ 42.7 µM)	1.56 (≈ 2.66 µM)	1.56 (≈ 2.66 µM)	–	3.12 (≈ 5.33 µM)	–	3.12 (≈ 5.33 µM)	–	–	–	–	25 (≈ 42.7 µM)	6.25 (≈ 10.7 µM)	–	MIC ([1]; Staphylococcus aureus, 209P, 18 h): 1.56 µg/mL (≈ 2.66 µM); MIC ([2]; Staphylococcus aureus, AP01, 18 h): 3.12 µg/mL (≈ 5.33 µM); MIC (Bacillus subtilis PCI219; Bacillus subtilis, PCI219, 18 h): 1.56 µg/mL (≈ 2.66 µM); MIC ([3]; Corynebacterium bovis, 1810, 18 h): 1.56 µg/mL (≈ 2.66 µM); MIC ([8]; Pseudomonas aeruginosa, A3, 18 h): 1.56 µg/mL (≈ 2.66 µM)
NC[C@@H]1C[C@H](O)[C@@H](N)[C@@H](O[C@H]2[C@H](F)[C@@H](O[C@H]3O[C@H](CO)[C@@H](O)[C@H](N)[C@H]3O)[C@H](N)C[C@@H]2N)O1 [Compound No. 3, 5,4'-Dideoxy-5-fluorokanamycin B]	0.39 (≈ 0.831 µM)	0.78 (≈ 1.66 µM)	0.39 (≈ 0.831 µM)	0.78 (≈ 1.66 µM)	1.56 (≈ 3.32 µM)	100 (≈ 213 µM)	> 100	6.25 (≈ 13.3 µM)	6.25 (≈ 13.3 µM)	> 100	3.12 (≈ 6.65 µM)	> 100	0.2 (≈ 0.426 µM)	–	–	3.12 (≈ 6.65 µM)	100 (≈ 213 µM)	12.5 (≈ 26.6 µM)	6.25 (≈ 13.3 µM)	–
NC[C@H](O)C(=O)N[C@@H]1C[C@H](N)[C@@H](O[C@H]2O[C@H](CN)[C@@H](O)[C@H](O)[C@H]2N)[C@H](F)[C@H]1O[C@H]1O[C@H](CO)[C@@H](O)[C@H](N)[C@H]1O [Compound No. 5, 1-N-(3-Amino-2-(S)-hydroxypropionyl)-5-deoxy-5-fluorokanamycin B]	0.39 (≈ 0.681 µM)	6.25 (≈ 10.9 µM)	0.78 (≈ 1.36 µM)	< 0.2	< 0.2	12.5 (≈ 21.8 µM)	0.78 (≈ 1.36 µM)	1.56 (≈ 2.72 µM)	0.2 (≈ 0.349 µM)	1.56 (≈ 2.72 µM)	6.25 (≈ 10.9 µM)	3.12 (≈ 5.45 µM)	< 0.2	1.56 (≈ 2.72 µM)	0.78 (≈ 1.36 µM)	0.2 (≈ 0.349 µM)	6.25 (≈ 10.9 µM)	–	–	–
NC[C@@H]1CC[C@@H](N)[C@@H](O[C@H]2[C@H](F)[C@@H](O[C@H]3O[C@H](CO)[C@@H](O)[C@H](N)[C@H]3O)[C@H](NC(=O)[C@@H](O)CN)C[C@@H]2N)O1 [Compound No. 12, 1-N-(3-Amino-2-(S)-hydroxypropionyl)-5,3',4'-trideoxy-5-fluorokanamycin B]	0.39 (≈ 0.721 µM)	0.78 (≈ 1.44 µM)	0.39 (≈ 0.721 µM)	0.2 (≈ 0.37 µM)	0.2 (≈ 0.37 µM)	50 (≈ 92.5 µM)	0.78 (≈ 1.44 µM)	1.56 (≈ 2.89 µM)	0.39 (≈ 0.721 µM)	1.56 (≈ 2.89 µM)	0.78 (≈ 1.44 µM)	1.56 (≈ 2.89 µM)	< 0.2	1.56 (≈ 2.89 µM)	–	0.39 (≈ 0.721 µM)	6.25 (≈ 11.6 µM)	–	1.56 (≈ 2.89 µM)	–
